In patent publication US20180214400A1, “THE USE OF KAURANES COMPOUNDS IN THE MANUFACTURE OF MEDICAMENT FOR TREATMENT OF CADIAC HYPERTROPY AND PULMONARY HYPERTENSION” (KEY-PHARMA BIOMEDICAL INC., priority 2015, published 2018):

Experiments:
TAC rats [1] = assay: TAC-induced cardiac hypertrophy and cardiomyocyte dilation in rats; assay type: in vivo, Wistar rats; details: for cardiac and myocyte hypertrophy: 3-week TAC groups; for increment of cardiomyocyte cross-sectional area: 3-week TAC; for HW / HW/BW: 3 wk TAC
Method: TAC between the innominate artery and the left carotid artery was conducted to induce pressure overload for 3 weeks (3-week TAC) or 9 weeks (9-week TAC). Sham control animals underwent the same operation, but without aortic constriction. All surgical procedures were performed with animals anesthetized with 3% pentobarbital sodium injected intraperitoneally (i.p. 40 mg/kg). During the surgery period, rats were intubated and ventilated with a rodent ventilator (Harvard Apparatus, Holliston, Mass., USA).
Both 3-week and 9-week TAC-exposed rats were randomly divided into five groups (n=8-10 rats) including a TAC vehicle control, COMPOUND A, low (TAC+COMPOUND A (L), 1 mg/kg/d), middle (TAC+COMPOUND A (M), 2 mg/kg/d), high (TAC+COMPOUND A (H), 8 mg/kg/d) dose group respectively, and sildenafil (TAC+Sil, 70 mg/kg/d) as a positive control group. Sham controls were all treated with vehicle. Acute and chronic mortality from the TAC procedure was <5%. The treat group was intra-gastric administrated with sodium salt of compound A which was solved in a mixture of saline and organic solvent of the same volume (1:1, 0.5 ml) and sildenafil which was solved in distilled water. All drugs and vehicle treatment were given twice a day after surgery for three days as designed. The animals were examined at 3 weeks and 9 weeks after surgery accordingly. At the end of the observation periods and after hemodynamic measurement in vivo, all animals were sacrificed and hearts were explanted for further Analyses.
Tissue sections of rat hearts were fixed in 10% neutral-buffered formalin, embedded in paraffin, cut into […] serial sections, and then stained with haematoxylin and eosin (H&E), picrosirius red or phalloidin. Nikon system and Zeiss confocal microscope were used to capture digital images. Stained with H&E was to evaluate cell size, stained with picrosirius red (sigma CA) was to test fibrosis using standard procedure and the amount of F-actin was stained with phalloidin. We determined cross sectional cell area and interstitial collagen fraction using computer-assisted image analysis (Image-Pro Plus software), with the observer blinded as to tissue source. At least four or five different hearts were quantified for analysis.
Adult Wistar rats were subjected to TAC for 3 weeks and treated with vehicle, COMPOUND A or sildenafil, respectively. […] The cardiac and myocyte hypertrophy were ameliorated by compound A or sildenafil in the 3-week TAC groups (Table 1).

TAC rats [2] = assay: Actin remodeling (FITC-phalloidin) and cardiac fibrosis (picrosirius red) in TAC rats; assay type: in vivo, Wistar rats; details: for reduction in interstitial fibrosis: 8 mg/kg/d; for level of myocardia F-actin (FITC-phalloidin staining): 9 weeks TAC, compound A 8 mg/kg/d, sildenafil 70 mg/kg/d
Method: TAC between the innominate artery and the left carotid artery was conducted to induce pressure overload for 3 weeks (3-week TAC) or 9 weeks (9-week TAC). Sham control animals underwent the same operation, but without aortic constriction. All surgical procedures were performed with animals anesthetized with 3% pentobarbital sodium injected intraperitoneally (i.p. 40 mg/kg). During the surgery period, rats were intubated and ventilated with a rodent ventilator (Harvard Apparatus, Holliston, Mass., USA). Both 3-week and 9-week TAC-exposed rats were randomly divided into five groups (n=8-10 rats) including a TAC vehicle control, COMPOUND A, low (TAC+COMPOUND A (L), 1 mg/kg/d), middle (TAC+COMPOUND A (M), 2 mg/kg/d), high (TAC+COMPOUND A (H), 8 mg/kg/d) dose group respectively, and sildenafil (TAC+Sil, 70 mg/kg/d) as a positive control group. Sham controls were all treated with vehicle. Acute and chronic mortality from the TAC procedure was <5%. The treat group was intra-gastric administrated with sodium salt of compound A which was solved in a mixture of saline and organic solvent of the same volume (1:1, 0.5 ml) and sildenafil which was solved in distilled water. All drugs and vehicle treatment were given twice a day after surgery for three days as designed. The animals were examined at 3 weeks and 9 weeks after surgery accordingly. At the end of the observation periods and after hemodynamic measurement in vivo, all animals were sacrificed and hearts were explanted for further Analyses. Tissue sections of rat hearts were fixed in 10% neutral-buffered formalin, embedded in paraffin, cut into […] serial sections, and then stained with haematoxylin and eosin (H&E), picrosirius red or phalloidin. Nikon system and Zeiss confocal microscope were used to capture digital images. Stained with H&E was to evaluate cell size, stained with picrosirius red (sigma CA) was to test fibrosis using standard procedure and the amount of F-actin was stained with phalloidin. We determined cross sectional cell area and interstitial collagen fraction using computer-assisted image analysis (Image-Pro Plus software), with the observer blinded as to tissue source. At least four or five different hearts were quantified for analysis. Some transcription factors important for hypertrophy influence actin dynamics, which is regulated by free G-actin and polymeric F-actin. A higher F-to-G actin content is an important result of the activation of hypertrophy pathways. The level of myocardia F-actin was measured by FITC-phalloidin staining. […] TAC increased the level of F actin, thus lead to actin dynamics. Both compound A and sildenafil can reduced the expression of F actin and maintain F/G actin balance. To determine whether compound A attenuates TAC-induced cardiac fibrosis, heart tissues were stained with picrosirius red to detect interstitial collagen distribution in left ventricular. In both 3-week and 9-week TAC groups, TAC induced significant interstitial fibrosis (P<0.05). The collagen content increased 5.7 fold and 7.5 fold in 3-week and 9-week TAC control groups, respectively, compared to sham control group.

TAC-exposed rats = assay: ECG alterations induced by TAC; assay type: in vivo; details: for QT dispersion and QTc dispersion increase induced by TAC: TAC after 9 weeks; for QRS duration and R amplitude: TAC at 9 weeks
Method: Three or nine weeks after TAC operation, rats were anesthetized with pentobarbital sodium (i.p. 40 mg/kg). The electrocardiogram (ECG) was measured using the II Einthoven lead. Three stainless steel 22G needle electrodes were localized in the insertion of the right (G1) and left (GND) front legs, and in the left (G2) rear leg. Accordingly, 10 min of ECG recordings were digitally acquired at 2 kHz prior to any maneuver. Heart rate variability-Spectral Analysis was performed using fast Fourier transformation. Oscillatory components were separated into very low frequency (VLF; <0.04 Hz), low frequency (LF; 0.04-0.6 Hz), or high frequency (HF; 0.6-2.5 Hz) bands. HRV components were expressed in normalized units (n.u.) as a percentage of total power minus the VLF component.

[3] = system: pulmonary hypertension rats; assay: Pressure overload (TAC)-induced pulmonary hypertension, lung histology; assay type: in vivo, wistar rats; set-up: Mean vascular wall thickness: unit not given here; details: for Mean vascular wall thickness: 9 weeks TAC
Method: Pressure overloaded-induced pulmonary hypertension was induced by transverse aortic constriction in male wistar rats (200±20 g body weight). Sham operated rats served as controls. […] After 9 weeks, animals were sacrificed and lungs were fixed, paraffin-embedded, sectioned, and stained with hematoxylin and eosin. Blinded stereological Analysis of mean wall thickness and vascular muscularization of lung arterial vessels was performed. Collagen I was verified by immune-fluorescent staining and visualized in confocal.

[4] = comp. A (L) 1 mg/kg/d intra-gastric

## C[C@@]12CC[C@@H]3[C@@](CC[C@H]4[C@@]3(C)CCC[C@@]4(C)C(=O)O)(CC1=O)C2 [Compound A, (4α,8β,13β)-13-methyl-16-oxo-17-norkauran-18-oic acid]
TAC rats [1]
  cardiac and myocyte hypertrophy: ameliorated
TAC rats [1]; 1 mg/kg
  increment of cardiomyocyte cross-sectional area: 15.1%
TAC rats [1]; 2 mg/kg
  increment of cardiomyocyte cross-sectional area: 4.1%
TAC rats [1]; 3 weeks TAC rats, dose not stated (TAC alone 76%)
  increase of cardiomyocyte cross-sectional area comparing to Sham rats: 10%
TAC rats [1]; [4]
  HW: 0.72 ± 0.03 g
  HW/BW: 2.862 ± 0.099 mg/g
TAC rats [2]; 3-week TAC
  reduction in interstitial fibrosis: 58.2%
TAC rats [2]; 9-week TAC
  reduction in interstitial fibrosis: 80.8%
TAC rats [2]
  level of myocardia F-actin (FITC-phalloidin staining): returned to control conditions
TAC-exposed rats
  QT dispersion and QTc dispersion increase induced by TAC: reversed such effects
  QRS duration and R amplitude: trended normal
[3]; 1 mg/kg + TAC
  Fully muscularization: 10.20 ± 9.787 %
  Non-muscularization: 66.78 ± 5.876 %
  Partially muscularization: 23.00 ± 3.938%
[3]; 4 mg/kg + TAC
  Fully muscularization: 1.851 ± 3.207^#& %
  Non-muscularization: 81.10 ± 16.60 %
  Partially muscularization: 17.04 ± 18.98%
[3]; lung, TAC rats
  number of non-muscularization vessels: increased
  production of collagen I: reduced
  vascular remodeling in small and medium arteries: prevented
[3]; lung, 1 mg/kg + TAC
  fluorescent intensity of collagen I: 10.75
[3]; pulmonary arterioles inner diameter <100 um, 1 mg/kg
  Mean vascular wall thickness: 22.96 ± 7.83
[3]; pulmonary arterioles inner diameter <100 um, 4 mg/kg
  Mean vascular wall thickness: 17.60 ± 6.28^##&&
[3]; pulmonary arterioles inner diameter >100 um, 1 mg/kg
  Mean vascular wall thickness: 16.60 ± 6.00
[3]; pulmonary arterioles inner diameter >100 um, 4 mg/kg
  Mean vascular wall thickness: 10.67 ± 5.01

## CCCc1nn(C)c2c(=O)[nH]c(-c3cc(S(=O)(=O)N4CCN(C)CC4)ccc3OCC)nc12 [sildenafil, reference compound]
TAC rats [1]
  cardiac and myocyte hypertrophy: ameliorated
TAC rats [1]; 70 mg/kg
  increment of cardiomyocyte cross-sectional area: 16.3%
TAC rats [1]; sildenafil 70 mg/kg/d
  HW: 0.76 ± 0.04 g
  HW/BW: 2.86 ± 0.117 mg/g
TAC rats [2]
  level of myocardia F-actin (FITC-phalloidin staining): returned to control conditions
TAC rats [2]; TAC rats
  inhibition effect on cardiac fibrosis compared to compound A: less inhibition effect
TAC-exposed rats
  QT dispersion and QTc dispersion increase induced by TAC: did not show similar protective effect
  QRS duration and R amplitude: trended normal
[3]; 70 mg/kg + TAC
  Fully muscularization: 23.80 ± 8.247 %
  Non-muscularization: 57.57 ± 7.182 %
  Partially muscularization: 18.61 ± 15.09%
[3]; lung, 70 mg/kg + TAC
  fluorescent intensity of collagen I: 7.591
[3]; pulmonary arterioles inner diameter <100 um, sildenafil
  Mean vascular wall thickness: 24.10 ± 7.48
[3]; pulmonary arterioles inner diameter >100 um, sildenafil
  Mean vascular wall thickness: 14.88 ± 6.83
